Assay results published in the NIST ThermoML archive (doi:10.1016/j.fluid.2013.09.026).

Assay: cn = amount concentration of the nth substance listed, in mol/dm3
Conditions: 303 K, 101 kPa, Liquid; for viscosity: Capillary tube (Ostwald / Ubbelohde) method; for speed of sound: Linear variable-path acoustic interferometer; for mass density: Pycnometric method

O=C1C(Cl)=C(Cl)C(=O)C(Cl)=C1Cl [2,3,5,6-tetrachloro-p-benzoquinone] + C[S+](C)[O-]
Conditions | mass density [kg/m3] | speed of sound [m/s] | viscosity [mPa·s]
c1 = 0.002 | 1091.4 | 1472.4 | 1.756
c1 = 0.004 | 1091.6 | 1472.6 | 1.757
c1 = 0.006 | 1091.9 | 1471.9 | 1.758
c1 = 0.008 | 1091.9 | 1471.3 | 1.773
c1 = 0.01 | 1092.1 | 1471.6 | 1.769
c1 = 0.012 | 1091.6 | 1470.3 | 1.767
c1 = 0.014 | 1091.4 | 1467.1 | 1.76
c1 = 0.016 | 1091.2 | 1468.3 | 1.756
c1 = 0.018 | 1091.7 | 1468.5 | 1.767
c1 = 0.02 | 1091.7 | 1468.7 | 1.769

Cc1ccccc1N [2-methylaniline] + C[S+](C)[O-]
Conditions | mass density [kg/m3] | speed of sound [m/s] | viscosity [mPa·s]
c1 = 0.002 | 1090.8 | 1471.4 | 1.713
c1 = 0.004 | 1090.4 | 1471.8 | 1.713
c1 = 0.006 | 1090.5 | 1472 | 1.723
c1 = 0.008 | 1089.6 | 1471.2 | 1.718
c1 = 0.01 | 1089.5 | 1472.6 | 1.72
c1 = 0.012 | 1090 | 1473.5 | 1.723
c1 = 0.014 | 1089.7 | 1472.5 | 1.718
c1 = 0.016 | 1089.8 | 1471.9 | 1.724
c1 = 0.018 | 1089.4 | 1473 | 1.733
c1 = 0.02 | 1090.3 | 1473.9 | 1.723

CN(C)c1ccccc1 [N,N-dimethylaniline] + C[S+](C)[O-]
Conditions | mass density [kg/m3] | speed of sound [m/s] | viscosity [mPa·s]
c1 = 0.002 | 1090.7 | 1471.9 | 1.734
c1 = 0.004 | 1090.4 | 1472.5 | 1.725
c1 = 0.006 | 1090.7 | 1471.9 | 1.721
c1 = 0.008 | 1090.6 | 1472.6 | 1.731
c1 = 0.01 | 1089.9 | 1471.8 | 1.747
c1 = 0.012 | 1089.6 | 1472.1 | 1.724
c1 = 0.014 | 1090.1 | 1472.3 | 1.73
c1 = 0.016 | 1089.8 | 1471.6 | 1.731
c1 = 0.018 | 1090.3 | 1472.2 | 1.733
c1 = 0.02 | 1090.2 | 1472 | 1.732

CNc1ccccc1 [N-methylaniline] + C[S+](C)[O-]
Conditions | mass density [kg/m3] | speed of sound [m/s] | viscosity [mPa·s]
c1 = 0.002 | 1090.8 | 1471.6 | 1.713
c1 = 0.004 | 1090.4 | 1471.8 | 1.713
c1 = 0.006 | 1090 | 1472 | 1.723
c1 = 0.008 | 1089.6 | 1471.2 | 1.718
c1 = 0.01 | 1089.8 | 1471.7 | 1.724
c1 = 0.012 | 1090 | 1473.5 | 1.733
c1 = 0.014 | 1089.7 | 1472.5 | 1.723
c1 = 0.016 | 1089.8 | 1471.9 | 1.718
c1 = 0.018 | 1089.8 | 1473 | 1.718
c1 = 0.02 | 1090.1 | 1473.9 | 1.72

Nc1ccccc1 [aniline] + C[S+](C)[O-]
Conditions | mass density [kg/m3] | speed of sound [m/s] | viscosity [mPa·s]
c1 = 0.002 | 1090.4 | 1471.6 | 1.789
c1 = 0.004 | 1090.6 | 1473.9 | 1.798
c1 = 0.006 | 1090.7 | 1473.4 | 1.79
c1 = 0.008 | 1090.2 | 1472.7 | 1.79
c1 = 0.01 | 1090.6 | 1474.1 | 1.806
c1 = 0.012 | 1090.4 | 1473.7 | 1.777
c1 = 0.014 | 1090.5 | 1472.7 | 1.802
c1 = 0.016 | 1090.3 | 1472.8 | 1.819
c1 = 0.018 | 1090.4 | 1473 | 1.79
c1 = 0.02 | 1090.6 | 1474 | 1.792
